Experimental data from US20260102377A1, “COMPOSITIONS AND METHODS FOR TREATING MYASTHENIA GRAVIS” (priority 2022, published 2026).
Like-named read-outs stand apart in the source and are kept apart here.

Key:
[1] = Phase I clinical trial Part A: pharmacokinetics; format: in vivo; conditions: human; for half-life: read-out: T1/2 (mean ± SD, hr) (converted)
Experimental: • Collect blood (3 mL recommended) onto wet ice (K2EDTA tubes) • Immediately cool blood on crushed wet ice for maximum of 30 minutes • Harvest plasma as quickly as possible using refrigerated centrifuge by centrifuging at 2000 g for 10 minutes at 4° C. • Keep plasma on wet ice and immediately stabilise with 1:1 (v/v) addition of Water: Orthophosphoric Acid (100:2 v/v) prepared using ≥85% orthophosphoric acid and deionised water (e.g. 750 μL plasma+750 μL stabiliser). • Mix sample thoroughly. • Keep the stabilised plasma on wet ice during subsequent steps. • Divide the stabilised plasma into 5×250 μL aliquots in plastic cryotubes. • Store aliquots at nominal −70° C./−80° C. promptly.
• 1. Thaw frozen calibration standards, QC samples, blank matrix and study samples on wet ice. • 2. Vortex-mix all samples thoroughly. • 3. On wet ice aliquot 150 μL of calibration standards, QC samples, study samples, and blanks into a 2 mL 96-well plate. For the reagent blank add the same volume of Water. • 4. On wet ice add 25 μL of Methanol:Water (50:50) to wells containing blanks and the same volume of ISTD intermediate solution to all other wells. • 5. On wet ice add 125 μL of Water to each well. Cap plate and vortex-mix (˜5 minutes, 1000 rpm). • 6. Centrifuge plate (˜3000 g, 3 minutes, room temperature). • 7. Condition SPE plate (Waters Oasis HLB pElution) with 250 μL Methanol. • 8. Condition SPE plate with 250 μL of Water. • 9. Load 250 μL of the sample onto the SPE plate (aspirate from the rim of the cone to avoid any debris collected at the bottom of the well). Pass through using minimum pressure. • 10. Wash SPE plate with 250 μL of Water. • 11. Wash SPE plate with 250 μL of Methanol:Water (5:95). Briefly increase pressure for one minute to ensure sorbent is partially dried. • 12. Elute from SPE plate into a 1.2 mL 96-well plate using 30 μL of Methanol. Stand for one minute then pass through using absolute minimum pressure. • 13. Elute again with another 30 μL of Methanol, collecting into the same plate. Briefly increase pressure for one minute to complete the elution. • 14. Add 125 μL of Ammonium Formate 10 mM (aq):Formic Acid (100:0.3) to each well. Cap plate and vortex mix (˜1 minute, ≥1200 rpm). • 15. Store plate refrigerated prior to analysis.
Subjects received 800 mg NMD670.

[2] = test system: patients with myasthenia gravis; assay: Phase IIA clinical trial (Part C): Quantitative Myasthenia Gravis test; format: in vivo, human
Experimental: For each subject, the study consisted of three study periods during which subjects received either a single dose of NMD670 400 mg, NMD670 1200 mg, or placebo with a 7-day washout period between visits. On these study visits, subjects were asked to refrain from their regular dose of pyridostigmine (if applicable) from 14 h before dosing until after the last pharmacodynamic measurement on Day 1 (see Table 13: Visit and Assessment Schedule). The cross-over design allowed intra-individual comparison of drug effects versus placebo (see FIG. 16). A balanced design was applied to control for first-order carry-over effects.
Part C was a double-blinded, placebo-controlled, three-way cross-over comparison of two single oral doses of NMD670 in men and women with stable symptomatic myasthenia gravis. 12 patients were enrolled. For each subject, the study consisted of three study periods during which subjects received either a single dose of NMD670 or placebo. On these study visits, subjects were asked to refrain from their regular dose of pyridostigmine (if applicable) for 14 hours before dosing. Single doses were administered in randomized order (400 mg free acid, 1200 mg free acid, or placebo p.o.), with a 7-day washout period between visits (FIG. 16). NMD670/placebo was administered with 240 ml of still water.
The Quantitative Myasthenia Gravis (QMG) total score (Barohn et al., Ann N YAcad Sci 1998, 841:769-72) is a validated clinical measure of sentinel muscle groups developed by the Myasthenia Gravis Foundation of America and the current clinical gold standard recommended for all prospective studies in MG. The QMG test is a physician-rated test using 13 assessments (see table 1), including facial strength, swallowing, respiratory, grip strength, and duration of time that limbs can be maintained in outstretched positions. Each of the 13 items is scored from 0 (none) to 3 (severe).
The total score can range from 0 to 39.

[3] = 400 mg group, 3-hour measurements
[4] = 1200 mg group, 3- and 5-hour measurements
[5] = single doses, 12 patients with MG

C[C@H](Oc1ccc(Br)cc1-c1ccon1)C(=O)O [NMD670, (2S)-2-[4-bromo-2-(1,2-oxazol-3-yl)phenoxy]propanoic acid]
AUC(0-inf) ([1]; female, plasma, po, 800 mg, 800 mg (female), single oral dose, read-out: AUC0-infinity (Mean ± SD, h · ng/mL)): 256 ± 56.2 µg·h/mL
half-life ([1]; female, plasma, po, 800 mg, 800 mg (female), single oral dose): 5.55 ± 0.55 h
Linearity of PK parameters ([1]; phase 1 FIH study): approximately linear and predictable
half-life ([1]; male, plasma, po, 800 mg, 800 mg fasted (male), single oral dose): 5.39 ± 0.82 h
half-life ([1]; male, plasma, po, 800 mg, 800 mg fed (male), single oral dose): 5.02 ± 1.04 h
Patients achieving a 2-point or larger improvement in QMG total score [2, 3]: 6 of 12
QMG responder rate (2-point or larger improvement from baseline compared to placebo) [2, 3]: 50%
Patients achieving a 2-point or larger improvement in QMG total score ([2]; 400 mg group, 5-hour): 5 of 12
QMG responder rate (2-point or larger improvement from baseline compared to placebo) ([2]; 400 mg group, 5-hour): 42%
QMG total score, LSM change over placebo (given as positive improvement) ([2]; 400 mg treatment group, 3-hour timepoint, p=0.12): 1.3 points
QMG total score, Arithmetic Mean change (given as positive improvement) ([2]; 400 mg treatment group, 5-hour timepoint): 2.1 points
QMG total score, LSM change over placebo (given as positive improvement) ([2]; 400 mg treatment group, 5-hour timepoint, p=0.02): 1.7 points
QMG total score, CFB over placebo, Arithmetic mean ([2]; 400 mg versus placebo, 3-hour): −1.6 points
QMG total score, CFB over placebo, LSM ([2]; 400 mg versus placebo, 3-hour, p = 0.12): −1.2 points
QMG total score, CFB over placebo, Arithmetic mean ([2]; 400 mg versus placebo, 5-hour): −2.1 points
QMG total score, CFB over placebo, LSM ([2]; 400 mg versus placebo, 5-hour, p = 0.02): −1.7 points
QMG total score, CFB over placebo, LSM ([2]; 400 mg versus placebo, Overall, p = 0.03, single oral dose, 12 MG patients): −1.5 points
Patients achieving a 2-point or larger improvement in QMG total score [2, 4]: 5 of 12
QMG responder rate (2-point or larger improvement from baseline compared to placebo) [2, 4]: 42%
QMG total score, Least Mean Square change improvement from baseline over placebo ([2]; 1200 mg group, 3-hour timepoint): 0.9 points
QMG total score, Least Mean Square change improvement from baseline over placebo ([2]; 1200 mg group, 5-hour timepoint): 1.1 points
QMG total score, Least Mean Square change improvement from baseline over placebo ([2]; 1200 mg group, overall, non-statistically significant): 1.0 points
QMG total score, CFB over placebo, Arithmetic mean ([2]; 1200 mg versus placebo, 3-hour): −1.2 points
QMG total score, CFB over placebo, LSM ([2]; 1200 mg versus placebo, 3-hour, p = 0.25): −0.9 points
QMG total score, CFB over placebo, Arithmetic mean ([2]; 1200 mg versus placebo, 5-hour): −1.5 points
QMG total score, CFB over placebo, LSM ([2]; 1200 mg versus placebo, 5-hour, p = 0.14): −1.1 points
QMG total score, CFB over placebo, LSM ([2]; 1200 mg versus placebo, Overall, p = 0.14): −1 points
QMG individual items: double vision, ptosis and dysarthria compared to placebo ([2]; both 400 mg and 1200 mg doses, non-statistically significant): improved
Patients meeting responder criterion (QMG) [2, 5]: up to 50%
QMG total Score after single doses [2, 5]: clinically significant improvements
QMG total score, LSM change from baseline improvement over placebo (given as positive improvement) ([2]; worded 'the NMD670 treatment arms', p=0.03 (Table 17: 400 mg overall)): 1.5 points
